Peptide text beside a SMILES is read from it.
Row | Compound | melting point
1 | CC(C)SC1OC(CO)C(O)C(O)C1O (stereo unspecified) | 121 °C
2 | CC(C)(C)P(c1ccc2ccccc2c1-c1cccc2ccccc12)C(C)(C)C | 147 to 149 °C
3 | C=C/C=C/C=C | -12 °C
4 | CC(/C=C(\C)c1ccc(-c2ccccc2)cc1)=NNS(=O)(=O)c1ccc([N+](=O)[O-])c([N+](=O)[O-])c1 | 200 to 201 °C
5 | CC(C)(C)C(O)C(Cc1ccc(Cl)cc1Cl)n1cncn1 (stereo unspecified) | 148 °C
6 | COc1c(Cl)c(Cl)c(Cl)c(Cl)c1Cl | 108 °C
7 | CC(=O)OCC(=O)C1(O)C(C)CC2C3CCC4=CC(=O)C=CC4(C)C3(F)C(O)CC21C (stereo unspecified) | 263 °C
8 | CCC1(c2ccccc2)NC(=O)N(C)C1=O (stereo unspecified) | 136 °C
9 | CC(C)CCC[C@@H](C)[C@H]1CC[C@H]2C3=CC=C4C[C@@H](O)CC[C@]4(C)[C@H]3CC[C@]12C | 150 °C
10 | CCN(CC)C(=O)C1C=C2c3cccc4[nH]c(Br)c(c34)CC2N(C)C1 (stereo unspecified) | 124 °C
11 | COC(=O)c1cc(O)no1 | 159 to 160 °C
12 | CSc1nc2cc(NCc3ccccc3)ccc2[nH]1 | 164 to 167 °C
13 | Brc1ccc2ncccc2c1 | 24 °C
14 | C=C1C(C)C2C(Cc3ccccc3)NC(=O)C23OC(=O)CCC(O)CCCC(C)CC=CC3C1O (stereo unspecified) | 203 to 205 °C
15 | COC(=O)c1ccc2c(I)cn(C(=O)OC(C)(C)C)c2c1 | 154 to 155 °C
16 | S=C(NCCc1ccccc1)Nc1ccccc1 | 135 °C
17 | C[C@]12CCC(=O)C=C1CCC2=O | 55 to 64 °C
18 | Cc1cc(C(=O)Nc2ccccc2)no1 | 136 to 139 °C
19 | COc1ccc(Cl)c(Cl)c1 | -8 °C
20 | NS(=O)(=O)c1cccc(C(=O)c2ccccc2)c1 | 144 °C
21 | Clc1c(Cl)c(Cl)c2c(Cl)c(Cl)c(Cl)c(Cl)c2c1Cl | 198 °C

Row | Compound | melting point
22 | CC(C)(Sc1cc(C(C)(C)C)c(O)c(C(C)(C)C)c1)Sc1cc(C(C)(C)C)c(O)c(C(C)(C)C)c1 | 125 °C
23 | CC1(C)C(=O)OC2=C(CC3C4CC=C5CC(O)CCC5(C)C4CCC23C)C1c1ccccc1 (stereo unspecified) | 230 to 235 °C
24 | CCCCC1C(=O)NC(=O)N(C2CCCCC2)C1=O (stereo unspecified) | 84 °C
25 | c1ccc(Oc2ccc(Oc3ccccc3)cc2)cc1 | 73 to 77 °C
26 | C=CC1(C)CC(OC(=O)CO)C2(C)C(C)CCC3(CCC(=O)C32)C(C)C1O (stereo unspecified) | 170 °C
27 | NCC(=O)NCC(=O)NCC(=O)NCC(=O)O (H-GGGG-OH) | 300 °C
28 | OCc1cc(-c2ccco2)[nH]n1 | 159 °C
29 | COC(=O)c1cc2c(=O)oc3ccccc3c2nc1N | 263 to 265 °C
30 | CC(C)OC(N)=O | 93 °C
31 | CNCC(O)c1cccc(O)c1 (stereo unspecified) | 170 °C
32 | C=C(C)C1CCC2(C)CCC3(C)C(CCC4C5(C)CCC(O)C(C)(C)C5CCC43C)C12 (stereo unspecified) | 216 °C
33 | O=C(O)c1ccccc1 | 122 °C
34 | CN(CCO)c1nc2c(c(=O)n(C)c(=O)n2C)n1C | 105 °C
35 | C=CC1=C(C=NNc2ccc([N+](=O)[O-])cc2[N+](=O)[O-])CCCC1 | 152 to 153 °C
36 | CC(=O)Cc1ncn(-c2cc(C)on2)n1 | 138 to 140 °C
37 | Cc1ccc(C)c(C(O)C(=O)O)c1 (stereo unspecified) | 115 to 118 °C
38 | C/C(CC(C)c1ccc(C)cc1)=N\NC(N)=O (stereo unspecified) | 146 °C
39 | CCCCC(CC)COC(=O)CCCCCCCC(=O)OCC(CC)CCCC (stereo unspecified) | -78 °C
40 | CC(=O)Oc1c(-c2ccccc2)[nH]c2cc(N)c(/C=C/c3ccccc3)cc12 | 266 °C
41 | Cn1nc(CCl)cc1-c1ccccc1 | 59 to 61 °C
42 | CCOC(=O)C(C)(C)C1=CCC2(C)C(CCC3C2CCC2(C)C(OCc4ccccc4)CCC32)C1 (stereo unspecified) | 138 °C

Row | Compound | melting point
43 | O=C1Cc2ccccc21 | 14 °C
44 | CC12C(=O)OC(=O)C1(C)C1CCC2O1 (stereo unspecified) | 218 °C
45 | ClC1=CC(c2ccccc2)c2ccccc21 (stereo unspecified) | 81 °C
46 | CC(C)CC(C)(N)P(=O)(O)O (stereo unspecified) | 234 to 238 °C
47 | BrC(Br)=Cc1ccccc1 | 75 °C
48 | N#CC(OC1OC(COC2OC(CO)C(O)C(O)C2O)C(O)C(O)C1O)c1ccccc1 (stereo unspecified) | 224 °C
49 | COc1ccccc1/C=C(\C(N)=O)c1nc2ccccc2s1 | 174 °C
50 | O=C(NCCO[N+](=O)[O-])c1cccnc1 | 92.5 °C
51 | O=C(O)c1ccc(-c2ccccn2)s1 | 231 to 233 °C
52 | N#Cc1cc(F)ccc1F | 33 to 35 °C
53 | O=C1c2ccccc2CC1Br (stereo unspecified) | 39 to 44 °C
54 | CC1(C)CCCC(O)C1 (stereo unspecified) | 11.5 °C
55 | O=C(O)c1c(Cl)c(Cl)c(Cl)c(Cl)c1C(=O)O | 98 °C
56 | O=C1c2ccccc2C(=O)c2c(Nc3cccc4c3C(=O)c3ccccc3C4=O)cccc21 | 300 °C
57 | C#CC1(O)CCC2(C)C(CCC3C2CCC2(C)C(OC(C)=O)CCC32)C1 (stereo unspecified) | 196 °C
58 | C=CC(=O)Oc1c(Br)cc(Cl)c2cccnc12 | 100 °C
59 | N#CC=Cc1cc(C(F)(F)F)cc(C(F)(F)F)c1 | 80 °C
60 | CCC1NC(C(=O)O)CS1 (mixture of isomers) | 158 to 162 °C
61 | O=C1OC2(c3ccccc31)c1cc(Br)c(O)c(Br)c1Oc1c2cc(Br)c(O)c1Br | 295 °C

From a melting point compilation (Tetko et al.)
